Our source for the IC50 values is ChEMBL document CHEMBL4418303, “1-cyano-pyrrolidine derivatives as inhibitors of usp30” (2017).

This assay addresses T1, Ubiquitin carboxyl-terminal hydrolase 30 (Homo sapiens, UniProt Q70CQ3).
T1 sequence (Q70CQ3 whole entry): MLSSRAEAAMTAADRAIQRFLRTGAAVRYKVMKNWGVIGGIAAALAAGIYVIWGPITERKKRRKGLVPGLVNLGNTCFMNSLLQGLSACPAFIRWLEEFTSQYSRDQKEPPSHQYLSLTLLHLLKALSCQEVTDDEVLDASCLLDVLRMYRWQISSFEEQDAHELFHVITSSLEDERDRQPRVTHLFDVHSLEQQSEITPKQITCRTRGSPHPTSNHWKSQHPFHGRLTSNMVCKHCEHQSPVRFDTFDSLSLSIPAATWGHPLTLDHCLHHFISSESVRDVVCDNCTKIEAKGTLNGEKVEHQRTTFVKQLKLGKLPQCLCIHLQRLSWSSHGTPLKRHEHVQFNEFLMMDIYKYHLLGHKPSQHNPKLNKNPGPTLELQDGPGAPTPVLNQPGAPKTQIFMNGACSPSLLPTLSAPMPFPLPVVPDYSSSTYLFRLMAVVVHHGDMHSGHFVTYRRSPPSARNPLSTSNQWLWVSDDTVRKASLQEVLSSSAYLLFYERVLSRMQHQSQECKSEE
Put plainly: Inhibition of untagged human USP30 catalytic domain (57 to 517 residues) expressed in Escherichia coli using TAMRA labeled ubiquitin peptide as substrate preincubated for 30 min followed by substrate addition and measured after 2 hrs by fluorescence polarization assay.

The term IC50 denotes the concentration at which inhibition is half-maximal. Low readings indicate greater potency, high ones weaker potency. In turn, `N#CN1CC[C@@H](N2Cc3ccnc(N4CCOCC4)c3NS2(=O)=O)C1` displayed an IC50 of 1000 to 10000 nM.

For the compound `CN1c2ccccc2CN([C@@H]2CCN(C#N)C2)S1(=O)=O`, the IC50 is 1000 to 10000 nM.

On to `CN1c2ccc(-c3ccccc3)cc2CN([C@@H]2CCN(C#N)C2)S1(=O)=O`, for which the 50% inhibitory concentration (IC50) is 100 to 1000 nM.
